Data published in patent EP0538469A1, “SULFONANILIDE DERIVATIVE AND MEDICINE” (NIPPON SHINYAKU COMPANY, LIMITED, priority 1990, dated 1991).
pEC50: −log10 of the molar value. Read-outs that look alike come from different tables or passages of the source. Marks after values point to notes of the source that are not given here.

Legend:
smooth muscle of urethra = assay: Contraction of isolated smooth muscle of urethra (Magnus vessel, cumulative concentration/response curves); assay type: cell-based, rabbits; settings: for pEC50: Oryctolagus cuniculus
Method: (§1) The experiment was conducted using female rabbits of 2 to 3.5 kg body weight.
(§2) The animals were killed by draining the blood out under anesthetizing with pentobarbital (30 mg/kg, by intravenous injection) and smooth muscle of urethra and femoral artery were excised. Each of the excised samples was placed in a Magnus vessel filled with a modified Krebs solution (at 37°C; under mixed gas) and both smooth muscle of urethra and femoral artery were suspended with 1 g load.
(§3) The drug to be tested was accumulated to contract the samples whereby the concentration/response curves were obtained wherefrom ED₅₀ (M) and pD₂ were calculated and the selectivity to urethra was determined.

femoral artery = assay: Contraction of isolated femoral artery (Magnus vessel, cumulative concentration/response curves); assay type: cell-based, rabbits; settings: Oryctolagus cuniculus
Method: as §1, §2, §3

α₁-adrenoceptors = assay: α₁-Adrenoceptor binding assay with [³H]-prazosin, brain membrane; set-up: species or system Rats
Method: Preparation of the receptor membrane was conducted as follows. Rats were decapitated, brain except cerebellum was excised, weighed, 40 times as much 50mM Tris-hydrochloric acid buffer (pH: 7.4) was added and the mixture was homogenized with a Polytron homogenizer and centrifuged for 20 minutes at 39,000 x g. Buffer solution was added to the precipitate and the resulting suspension was again centrifuged for 20 minutes. Then the precipitate was suspended in 40 volumes of Tris-hydrochloric acid buffer to prepare a receptor sample. The above operations were all conducted at 4°C.
α ₁-Adrenoceptor binding assay was conducted as a radioactive ligand using a [³H]-prazosin.
First, the receptor sample prepared as above was incubated in 50 mM Tris-hydrochloric acid buffer (pH 7.4) with [³H]-prazosin (0.2nM) at 25°C for 30 minutes. […] The mixture was allowed to stand at room temperature for not shorter than about 10 hours and the radioactivity was measured with a liquid scintillation counter to give a total binding.
The same reaction as above was conducted in the presence of 1 µM of prazosin as well and the resulting radioactivity was defined as nonspecific binding. […]
The inhibition activity of the test drug to the [³H]-prazosin binding was calculated by measuring the amount of the specific [ ³H] -prazosin binding in the presence of various concentrations of the drug. […]

male rabbits [1] = assay: Action to intra urethral pressure and blood pressure, intravenous administration; assay type: in vivo
Method: (§4) The experiment was conducted using male rabbits of body weight of 1.4-3.1 kg under fasted condition. The animals were fixed at backs under uretrane(1.2g/kg s.c.) anesthesia, abdomen was subjected to a midline incision and bladder was exposed. In order to prevent the urine stored in the bladder on the intra urethral pressure, the urine in the bladder was compulsorily discharged out of the body. After that, a catheter was inserted into both ureters and the urine discharged from kidney was introduced outside.
(§5) The intra urethral pressure(IUP) at the urethra tract of about 0.5-1 cm distance from the neck of the bladder was measured using a microtip transducer transducer equipped with a baloon (filled with physiological saline solution) at the top end. Further, polyethylene tube was inserted into femoral artery to measure the blood pressure (BP).
The drug to be tested was injected into the vein of ear every fifteen minutes and the maximum responses of the increasing action of intra urethral pressure tract and of the increasing action of blood pressure were measured at each dose.

male rabbits [2] = assay: Action to intra urethral pressure and blood pressure, administration to duodenum; assay type: in vivo
Method: as §4, §5
Abdomen right above stomach was subjected to a midline incision and, after that, the drug to be tested suspended in 0.5% methyl cellulose (0.5% MC) was administered at the dose of 0.5ml/kg to the duodenum. […] The above administration to duodenum corresponded to oral administration as the administration into digestive organ in anethetized animals.

mice (ddY-strain, male) = assay: Acute toxicity, oral, mice; assay type: in vivo; settings: observed two weeks
Method: (§6) Numbers of mice (ddY-strain, male, 6-8 weeks age) and rats (SD strain, male, 6-7 weeks age) in each group were 4 and 6, respectively.
(§7) The drug to be tested was orally administered at the dose of 10 ml/kg using an oral probe to the animals which were fasted since one day before (for 16-18 hours). After giving the drug, the animals were returned to the state where both feed and water were available and the general symptom and the dead cases, if any, were checked for two weeks. The drug was suspended in physiological saline solution containing 0.5% of methylcellulose (0.5% MC) and the suspension was given to the animals by oral route.

[3] = Acute toxicity, oral, rats; assay type: in vivo; settings: rat, in vivo, SD rats, read-out: Rats LD₅₀
Method: as §6, §7

rats (SD strain, male) = assay: Acute toxicity, oral, rats; assay type: in vivo; settings: observed two weeks
Method: as §6, §7

[4] = 0.1 mg/kg i.d., 10 min after administration
[5] = 0.1 mg/kg i.d., 20 min after administration
[6] = 0.1 mg/kg i.d., 30 min after administration
[7] = 0.1 mg/kg i.d., 60 min after administration
[8] = 0.1 mg/kg i.d., 90 min after administration
[9] = 0.1 mg/kg i.d., 120 min after administration
[10] = 0.1 mg/kg i.d., 180 min after administration
[11] = 0.3 mg/kg i.d., 10 min after administration
[12] = 0.3 mg/kg i.d., 20 min after administration
[13] = 0.3 mg/kg i.d., 30 min after administration
[14] = 0.3 mg/kg i.d., 60 min after administration
[15] = 0.3 mg/kg i.d., 90 min after administration
[16] = 0.3 mg/kg i.d., 120 min after administration
[17] = 0.3 mg/kg i.d., 180 min after administration

Structure (SMILES): CS(=O)(=O)Nc1ccc(F)c([C@@H](O)CN)c1.Cl [(49B), (R)-(-)-3'-(2-Amino-1-hydroxyethyl)-4'-fluoromethanesulfonanilide hydrochloride]
- Selectivity (B/A) (smooth muscle of urethra; ED₅₀ femoral artery / ED₅₀ urethra): 0.73
- pEC50 (smooth muscle of urethra; read-out: ED₅₀ Urethra(A)): 5.36
- pEC50 (smooth muscle of urethra; read-out: pD₂ Urethra(A)): 5.36
- pEC50 (femoral artery; read-out: ED₅₀ Femoral Artery(B)): 5.49
- pEC50 (femoral artery; read-out: pD₂ Femoral Artery(B)): 5.49
- inhibiting action to binding of [³H]-prazosin, stronger than amidephrine (α₁-adrenoceptors; relative to amidephrine): about twice
- inhibiting action to binding of [³H]-prazosin, stronger than phenylephrine (α₁-adrenoceptors; relative to phenylephrine): about five times
- Selectivity (B/A) (male rabbits [1]; BP(ED30%↑) / IUP(ED150%↑), i.v.): 5.3
- ED (30%) (male rabbits [1]; Oryctolagus cuniculus, iv, read-out: BP(B) [BP(ED30%↑)]): 0.048 mg/kg
- Change(%) BP (male rabbits [2]; [4]): 2.7%
- Change(%) BP (male rabbits [2]; [5]): 1.9%
- Change(%) BP (male rabbits [2]; [6]): 3.3%
- Change(%) BP (male rabbits [2]; [7]): 0.5%
- Change(%) BP (male rabbits [2]; [8]): -5.0%
- Change(%) BP (male rabbits [2]; [9]): -9.8%
- Change(%) BP (male rabbits [2]; [10]): -14.9%
- Change(%) BP (male rabbits [2]; [11]): 2.8%
- Change(%) BP (male rabbits [2]; [12]): 4.0%
- Change(%) BP (male rabbits [2]; [13]): 4.7%
- Change(%) BP (male rabbits [2]; [14]): 7.9** %
- Change(%) BP (male rabbits [2]; [15]): 6.5** %
- Change(%) BP (male rabbits [2]; [16]): 3.3* %
- Change(%) BP (male rabbits [2]; [17]): -10.0%
- Change(%) IUP (male rabbits [2]; [4]): 10.5%
- Change(%) IUP (male rabbits [2]; [5]): 11.0%
- Change(%) IUP (male rabbits [2]; [6]): 20.7%
- Change(%) IUP (male rabbits [2]; [7]): 29.4%
- Change(%) IUP (male rabbits [2]; [8]): 28.9%
- Change(%) IUP (male rabbits [2]; [9]): 30.3%
- Change(%) IUP (male rabbits [2]; [10]): 24.1%
- Change(%) IUP (male rabbits [2]; [11]): 21.5%
- Change(%) IUP (male rabbits [2]; [12]): 44.2** %
- Change(%) IUP (male rabbits [2]; [13]): 65.2* %
- Change(%) IUP (male rabbits [2]; [14]): 84.1** %
- Change(%) IUP (male rabbits [2]; [15]): 114.9* %
- Change(%) IUP (male rabbits [2]; [16]): 101.5** %
- Change(%) IUP (male rabbits [2]; [17]): 95.7** %
- dose resulting in intraurethral pressure increasing action of the same grade as known amidephrine (male rabbits [2]; administration to digestive organ, relative to amidephrine dose): about one-tenth
- Mice Dead/ Total (mice (ddY-strain, male); 1000 mg/kg): 0 / 4
- Mice Dead/ Total (mice (ddY-strain, male); 3000 mg/kg): 0 / 4
- LD50 at 336 h [3]: > 1000 mg/kg
- Rats Dead/ Total (rats (SD strain, male); 500 mg/kg): 0 / 6
- Rats Dead/ Total (rats (SD strain, male); 1000 mg/kg): 0 / 6
